Here are results for 14 compounds from patent publication US12447153B2, “HER2 mutation inhibitors” (Array BioPharma Inc., priority 2021, dated 2025).

Experiment [1] has as its target ErbB2 with Exon 20 YVMA insertion (HER2-YVMA) (Homo sapiens (Human), UniProt P04626, INS775YVMA). Briefly: Cellular Phosphorylation Assay, Assay 4 (constitutive ErbB2 phosphorylation, NIH 3T3 cells). In kind it is cell-based. The settings on record: ErbB2 YVMA phosphorylation.
The target of the next experiment is EGFR (Homo sapiens (Human), UniProt P00533). Briefly: ErbB Enzyme Assay (HTRF KinEASE-TK), Assay 3. The settings on record: EGFR enzyme. It is filed as biochemical. (In general: In TR-FRET formats the signal depends on donor and acceptor labels being close together.)
Sequence of EGFR (P00533 25-1210): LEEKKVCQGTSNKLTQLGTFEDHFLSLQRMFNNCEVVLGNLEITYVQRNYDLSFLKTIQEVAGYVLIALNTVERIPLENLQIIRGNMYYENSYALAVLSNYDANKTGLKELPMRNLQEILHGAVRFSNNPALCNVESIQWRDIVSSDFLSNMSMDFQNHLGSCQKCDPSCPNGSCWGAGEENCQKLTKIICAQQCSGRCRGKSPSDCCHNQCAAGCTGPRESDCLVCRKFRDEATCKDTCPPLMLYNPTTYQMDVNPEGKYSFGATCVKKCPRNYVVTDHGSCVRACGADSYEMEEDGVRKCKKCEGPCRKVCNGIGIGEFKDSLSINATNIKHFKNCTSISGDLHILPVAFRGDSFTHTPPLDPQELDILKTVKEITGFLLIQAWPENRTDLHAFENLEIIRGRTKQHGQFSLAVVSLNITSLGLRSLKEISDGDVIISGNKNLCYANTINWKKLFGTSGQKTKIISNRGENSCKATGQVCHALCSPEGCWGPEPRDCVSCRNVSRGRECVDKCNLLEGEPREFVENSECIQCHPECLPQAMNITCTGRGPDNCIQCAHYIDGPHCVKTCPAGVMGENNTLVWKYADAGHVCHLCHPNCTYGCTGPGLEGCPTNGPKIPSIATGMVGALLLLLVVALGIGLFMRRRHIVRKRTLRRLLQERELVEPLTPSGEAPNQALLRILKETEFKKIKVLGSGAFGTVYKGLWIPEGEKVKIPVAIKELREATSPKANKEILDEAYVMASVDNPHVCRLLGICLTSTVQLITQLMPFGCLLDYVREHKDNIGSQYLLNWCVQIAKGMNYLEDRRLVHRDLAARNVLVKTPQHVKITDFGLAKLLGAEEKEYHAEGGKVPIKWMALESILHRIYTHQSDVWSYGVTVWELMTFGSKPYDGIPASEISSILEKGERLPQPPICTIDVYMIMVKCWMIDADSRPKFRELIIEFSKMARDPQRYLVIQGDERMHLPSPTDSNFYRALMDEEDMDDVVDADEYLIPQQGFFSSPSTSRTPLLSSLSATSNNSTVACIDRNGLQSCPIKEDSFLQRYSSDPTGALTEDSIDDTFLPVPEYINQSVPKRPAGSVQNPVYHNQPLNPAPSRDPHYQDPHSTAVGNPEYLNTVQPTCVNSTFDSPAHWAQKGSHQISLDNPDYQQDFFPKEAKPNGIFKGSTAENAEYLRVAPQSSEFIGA
The target of a further experiment is ErbB2 WT (Homo sapiens (Human), UniProt P04626). Briefly: ErbB Enzyme Assay (HTRF KinEASE-TK), Assay 2. In kind it is biochemical. The conditions noted are these: ErbB2 WT enzyme.
Sequence of ErbB2 WT (P04626 23-1255): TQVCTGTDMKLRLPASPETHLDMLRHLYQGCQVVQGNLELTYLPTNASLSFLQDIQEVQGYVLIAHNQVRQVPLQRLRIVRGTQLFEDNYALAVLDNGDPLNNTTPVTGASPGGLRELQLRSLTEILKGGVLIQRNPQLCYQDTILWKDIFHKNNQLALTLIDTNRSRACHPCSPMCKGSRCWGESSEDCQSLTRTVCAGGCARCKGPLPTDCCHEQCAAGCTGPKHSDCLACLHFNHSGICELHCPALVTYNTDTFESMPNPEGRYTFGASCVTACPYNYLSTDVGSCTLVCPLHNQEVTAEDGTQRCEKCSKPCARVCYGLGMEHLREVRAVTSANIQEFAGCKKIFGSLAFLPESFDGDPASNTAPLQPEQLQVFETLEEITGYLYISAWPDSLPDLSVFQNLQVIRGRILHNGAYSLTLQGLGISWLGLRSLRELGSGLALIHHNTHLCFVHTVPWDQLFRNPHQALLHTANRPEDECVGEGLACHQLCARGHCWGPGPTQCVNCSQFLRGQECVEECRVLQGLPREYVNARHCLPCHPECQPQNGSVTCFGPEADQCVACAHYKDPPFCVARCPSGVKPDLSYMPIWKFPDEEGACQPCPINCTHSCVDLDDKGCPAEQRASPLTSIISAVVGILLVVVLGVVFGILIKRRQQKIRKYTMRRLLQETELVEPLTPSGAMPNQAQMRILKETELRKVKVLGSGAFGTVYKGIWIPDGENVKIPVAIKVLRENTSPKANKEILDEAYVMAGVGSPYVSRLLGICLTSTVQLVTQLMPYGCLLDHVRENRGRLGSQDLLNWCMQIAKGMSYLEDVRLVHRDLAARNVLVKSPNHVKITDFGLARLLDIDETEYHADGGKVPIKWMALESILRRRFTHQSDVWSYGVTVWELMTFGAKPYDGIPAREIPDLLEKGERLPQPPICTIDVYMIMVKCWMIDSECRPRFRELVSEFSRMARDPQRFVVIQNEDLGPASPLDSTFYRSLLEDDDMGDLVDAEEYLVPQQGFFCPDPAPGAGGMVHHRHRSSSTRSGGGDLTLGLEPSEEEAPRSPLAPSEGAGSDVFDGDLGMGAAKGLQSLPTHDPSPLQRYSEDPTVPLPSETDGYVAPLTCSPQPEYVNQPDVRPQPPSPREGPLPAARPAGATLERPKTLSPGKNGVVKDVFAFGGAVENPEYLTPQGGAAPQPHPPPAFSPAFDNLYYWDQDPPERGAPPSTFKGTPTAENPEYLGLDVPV
A further experiment has as its target EGFR wild type (EGFR WT) (Homo sapiens (Human), UniProt P00533). The experiment in a line: Cellular Phosphorylation Assay, Assay 5 (EGF-stimulated EGFR phosphorylation, NIH 3T3 cells). In kind it is cell-based. The settings on record: EGF-stimulated EGFR WT phosphorylation.

What is called pIC50 is −log10 of the IC50, conventionally taken in molar units.

Each structure is given as a SMILES string. pIC50: −log10 of the molar value. Bounds are passed on as bounds.

Sequence of EGFR wild type (EGFR WT) (P00533 25-1210): as the sequence (P00533 25-1210) above
Sequence of ErbB2 with Exon 20 YVMA insertion (HER2-YVMA) (P04626 other isoform, or with tags, fused parts or gaps ins YVMA behind 775): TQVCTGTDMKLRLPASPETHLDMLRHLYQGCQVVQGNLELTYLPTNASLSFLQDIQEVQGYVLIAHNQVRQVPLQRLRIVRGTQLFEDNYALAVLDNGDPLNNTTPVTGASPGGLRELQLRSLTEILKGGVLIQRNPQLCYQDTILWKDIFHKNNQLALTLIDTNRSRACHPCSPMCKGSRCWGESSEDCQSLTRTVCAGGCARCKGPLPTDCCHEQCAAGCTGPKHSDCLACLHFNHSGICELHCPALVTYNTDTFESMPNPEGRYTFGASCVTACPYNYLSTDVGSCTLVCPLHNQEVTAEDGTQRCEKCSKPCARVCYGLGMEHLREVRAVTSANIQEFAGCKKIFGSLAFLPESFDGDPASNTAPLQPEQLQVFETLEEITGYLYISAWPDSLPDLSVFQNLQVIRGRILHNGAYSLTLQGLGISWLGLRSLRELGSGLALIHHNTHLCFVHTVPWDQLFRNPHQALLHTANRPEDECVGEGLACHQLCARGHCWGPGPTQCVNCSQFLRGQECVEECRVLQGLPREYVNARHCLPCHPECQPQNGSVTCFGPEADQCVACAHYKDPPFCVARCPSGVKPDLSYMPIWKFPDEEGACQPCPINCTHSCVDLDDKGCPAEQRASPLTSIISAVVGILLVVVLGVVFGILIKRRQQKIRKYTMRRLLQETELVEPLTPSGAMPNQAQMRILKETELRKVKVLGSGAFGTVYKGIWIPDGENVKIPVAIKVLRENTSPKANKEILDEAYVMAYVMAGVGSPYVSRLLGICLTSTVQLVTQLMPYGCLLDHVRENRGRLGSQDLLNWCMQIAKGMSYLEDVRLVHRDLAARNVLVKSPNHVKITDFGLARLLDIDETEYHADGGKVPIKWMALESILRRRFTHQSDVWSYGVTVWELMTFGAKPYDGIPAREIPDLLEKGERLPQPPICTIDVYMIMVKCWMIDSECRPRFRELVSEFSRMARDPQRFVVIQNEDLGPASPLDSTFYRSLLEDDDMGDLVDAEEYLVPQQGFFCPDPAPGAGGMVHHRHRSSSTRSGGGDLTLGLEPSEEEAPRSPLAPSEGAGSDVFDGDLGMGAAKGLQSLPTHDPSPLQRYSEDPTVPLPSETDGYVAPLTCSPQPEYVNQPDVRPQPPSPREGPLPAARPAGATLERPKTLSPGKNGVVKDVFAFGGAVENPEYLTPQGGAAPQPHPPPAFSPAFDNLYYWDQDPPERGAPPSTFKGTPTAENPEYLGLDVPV

Regarding `C=CC(=O)N1CCC(Sc2ccc3ncnc(Nc4ccc(Oc5ccn6ncnc6c5)c(Cl)c4F)c3n2)CC1` [Example 62, 1-(4-((4-((4-([1,2,4]triazolo[1,5-a]pyridin-7-yloxy)-3-chloro-2-fluorophenyl)amino)pyrido[3,2-d]pyrimidin-6-yl)thio)piperidin-1-yl)prop-2-en-1-one], the pIC50 in experiment [1] was 7.55; at EGFR, 6.48; against ErbB2 WT, 7.82; on EGFR wild type (EGFR WT), 6.19.
The corresponding values for `C=CC(=O)N1CC[C@@H]2C[C@H]1CN2c1ccc2ncnc(Nc3cc(C)c(Oc4ccc5c(c4)ncn5C)cc3F)c2n1` [Example 66, 1-((1S,5R)-6-(4-((2-fluoro-5-methyl-4-((1-methyl-1H-benzo[d]imidazol-5-yl)oxy)phenyl)amino)pyrido[3,2-d]pyrimidin-6-yl)-2,6-diazabicyclo[3.2.1]octan-2-yl)prop-2-en-1-one] are 8.21, 7.07, 8.17 and 6.82.
Take `C=CC(=O)N1CC[C@H]2C[C@@H]1CN2c1ccc2ncnc(Nc3ccc(Oc4ccc5c(c4)ncn5C)c(C)c3F)c2n1` [Example 67, 1-((1R,5S)-6-(4-((2-fluoro-3-methyl-4-((1-methyl-1H-benzo[d]imidazol-5-yl)oxy)phenyl)amino)pyrido[3,2-d]pyrimidin-6-yl)-2,6-diazabicyclo[3.2.1]octan-2-yl)prop-2-en-1-one]: the pIC50 in experiment [1] was 7.45; against EGFR, at most 5.00; at ErbB2 WT it was 6.37; against EGFR wild type (EGFR WT), at most 5.30.
The corresponding values for `C=CC(=O)N1CCN(c2ccc3ncnc(Nc4ccc(Oc5ccc6c(c5)ncn6C)c(C)c4F)c3n2)CCC1(C)C` [Example 68, 1-(4-(4-((2-fluoro-3-methyl-4-((1-methyl-1H-benzo[d]imidazol-5-yl)oxy)phenyl)amino)pyrido[3,2-d]pyrimidin-6-yl)-7,7-dimethyl-1,4-diazepan-1-yl)prop-2-en-1-one] are 7.13, at most 5.00, 6.18 and at most 5.30.
Consider `C=CC(=O)N1CCN(c2ccc3ncnc(Nc4cc(Cl)c(Oc5ccc6c(c5)ncn6C)cc4F)c3n2)CC1(C)C` [Example 76, 1-(4-(4-((5-chloro-2-fluoro-4-((1-methyl-1H-benzo[d]imidazol-5-yl)oxy)phenyl)amino)pyrido[3,2-d]pyrimidin-6-yl)-2,2-dimethylpiperazin-1-yl)prop-2-en-1-one], for which the pIC50 in experiment [1] was 7.77; at EGFR it was at most 5.00; against ErbB2 WT, 7.48; against EGFR wild type (EGFR WT), at most 5.30.
Taken in the same sequence, the figures for `C=CC(=O)N1C[C@H]2C[C@@H]1CN2c1ccc2ncnc(Nc3cc(C)c(Oc4ccn5ncnc5c4)cc3F)c2n1` [Example 78, 1-((1R,4R)-5-(4-((4-([1,2,4]triazolo[1,5-a]pyridin-7-yloxy)-2-fluoro-5-methylphenyl)amino)pyrido[3,2-d]pyrimidin-6-yl)-2,5-diazabicyclo[2.2.1]heptan-2-yl)prop-2-en-1-one] were 6.84, at most 5.00, 6.35 and at most 5.30.
The corresponding values for `C=CC(=O)N1CCN(c2ccc3ncnc(Nc4cc(C)c(Oc5ccn6ncnc6c5)cc4F)c3n2)CC1` [Example 79, 1-(4-(4-((4-([1,2,4]triazolo[1,5-a]pyridin-7-yloxy)-2-fluoro-5-methylphenyl)amino)pyrido[3,2-d]pyrimidin-6-yl)piperazin-1-yl)prop-2-en-1-one] are 7.37, at most 5.00, 6.98 and at most 5.30.
The corresponding values for `C=CC(=O)N1CCN(c2ccc3ncnc(Nc4ccc(Oc5ccn6ncnc6c5)c(Cl)c4F)c3n2)C[C@H]1C(F)(F)F` [Example 85, (S)-1-(4-(4-((4-([1,2,4]triazolo[1,5-a]pyridin-7-yloxy)-3-chloro-2-fluorophenyl)amino)pyrido[3,2-d]pyrimidin-6-yl)-2-(trifluoromethyl)piperazin-1-yl)prop-2-en-1-one] are 7.60, 6.69, 8.51 and 6.35.
In the case of `C=CC(=O)N1CCN(c2ccc3ncnc(Nc4ccc(Oc5ccn6ncnc6c5)c(Cl)c4F)c3n2)C[C@@H]1C(F)(F)F` [Example 86, (R)-1-(4-(4-((4-([1,2,4]triazolo[1,5-a]pyridin-7-yloxy)-3-chloro-2-fluorophenyl)amino)pyrido[3,2-d]pyrimidin-6-yl)-2-(trifluoromethyl)piperazin-1-yl)prop-2-en-1-one], the pIC50 in experiment [1] is 8.24; against EGFR, 7.52; against ErbB2 WT, 8.64; on EGFR wild type (EGFR WT), 7.34.
Taken in the same sequence, the figures for `C=CC(=O)N1CCN(c2ccc3ncnc(Nc4ccc(Oc5ccn6ncnc6c5)c(Cl)c4F)c3n2)CC1(C)C` [Example 87, 1-(4-(4-((4-([1,2,4]triazolo[1,5-a]pyridin-7-yloxy)-3-chloro-2-fluorophenyl)amino)pyrido[3,2-d]pyrimidin-6-yl)-2,2-dimethylpiperazin-1-yl)prop-2-en-1-one] were 8.06, 6.33, 8.12 and 6.75.
For `C=CC(=O)N1CCN(c2ccc3ncnc(Nc4ccc(Oc5ccn6ncnc6c5)c(C)c4F)c3n2)C[C@@H]1C` [Example 88, (S)-1-(4-(4-((4-([1,2,4]triazolo[1,5-a]pyridin-7-yloxy)-2-fluoro-3-methylphenyl)amino)pyrido[3,2-d]pyrimidin-6-yl)-2-methylpiperazin-1-yl)prop-2-en-1-one], the pIC50 is 7.75 in experiment [1], 5.53 against EGFR, 7.09 on ErbB2 WT and 5.73 on EGFR wild type (EGFR WT).
Take `C=CC(=O)N1CCN(c2ccc3ncnc(Nc4ccc(Oc5ccn6ncnc6c5)c(C)c4F)c3n2)C[C@H]1C` [Example 89, (R)-1-(4-(4-((4-([1,2,4]triazolo[1,5-a]pyridin-7-yloxy)-2-fluoro-3-methylphenyl)amino)pyrido[3,2-d]pyrimidin-6-yl)-2-methylpiperazin-1-yl)prop-2-en-1-one]: the pIC50 in experiment [1] is 7.96; at EGFR, 5.44; at ErbB2 WT, 7.12; on EGFR wild type (EGFR WT), 6.35.
The corresponding values for `C=CC(=O)N1CCN(c2ccc3ncnc(Nc4ccc(Oc5ccn6ncnc6c5)c(Cl)c4F)c3n2)C[C@@H]1C` [Example 90, (S)-1-(4-(4-((4-([1,2,4]triazolo[1,5-a]pyridin-7-yloxy)-3-chloro-2-fluorophenyl)amino)pyrido[3,2-d]pyrimidin-6-yl)-2-methylpiperazin-1-yl)prop-2-en-1-one] are 8.23, 6.28, 7.87 and 6.24.
`C=CC(=O)N1CCN(c2ccc3ncnc(Nc4ccc(Oc5ccn6ncnc6c5)c(Cl)c4F)c3n2)C[C@H]1C` [Example 91, (R)-1-(4-(4-((4-([1,2,4]triazolo[1,5-a]pyridin-7-yloxy)-3-chloro-2-fluorophenyl)amino)pyrido[3,2-d]pyrimidin-6-yl)-2-methylpiperazin-1-yl)prop-2-en-1-one]: the pIC50 in experiment [1] is 8.55; on EGFR it was 6.45; against ErbB2 WT it was 8.01; against EGFR wild type (EGFR WT), 7.25.
